Data from patent US9617282B2, “Macrocyclic compounds as IRAK4 inhibitors for the treatment of inflammatory diseases” (BIOGEN MA INC., priority 2013, dated 2017).

Molecular target: IRAK4 (Homo sapiens (Human), UniProt Q9NWZ3)
Experiment: IRAK-4 biochemical kinase assay, AlphaScreen format
Settings: 1 nM IRAK4, 1.6 μM peptide, 10 μM ATP, 3.5 h at RT
Description: The biochemical assay is in a AlphaScreen format. The kinase reaction is based on the IRAK-4 phosphorylation of a biotin labeled peptide. The phosphopeptide is incubated with anti-phosphothreonine antibody as well as streptavidin- and protein A-coated beads. Binding of the protein-A coated beads to the antibody and the streptavidin beads to the peptide, leads to an energy transfer from one bead to the other, ultimately producing a luminescent/fluorescent signal.

Chain of IRAK4 (Q9NWZ3 whole entry, species assumed): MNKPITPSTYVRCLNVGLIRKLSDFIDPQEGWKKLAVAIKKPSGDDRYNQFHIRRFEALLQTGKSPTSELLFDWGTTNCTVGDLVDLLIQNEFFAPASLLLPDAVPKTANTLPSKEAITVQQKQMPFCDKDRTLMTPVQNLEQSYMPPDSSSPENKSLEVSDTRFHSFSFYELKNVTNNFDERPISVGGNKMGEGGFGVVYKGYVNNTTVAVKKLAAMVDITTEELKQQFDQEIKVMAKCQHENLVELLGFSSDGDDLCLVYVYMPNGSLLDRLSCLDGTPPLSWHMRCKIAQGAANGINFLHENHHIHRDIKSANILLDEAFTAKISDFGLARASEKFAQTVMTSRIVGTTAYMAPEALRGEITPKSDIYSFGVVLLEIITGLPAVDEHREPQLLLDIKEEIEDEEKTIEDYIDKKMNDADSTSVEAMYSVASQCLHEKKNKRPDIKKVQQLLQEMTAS

| Structure (SMILES) | IC50 (class symbols) [nM] | IC50 (given as numeric bound) [nM] |
| --- | --- | --- |
| NC(=O)c1ccc2c(c1)NC(=O)c1csc(n1)-c1ccnc(c1)NCCCCCO2 [Compound 24] | < 100 |  |
| Cn1cc2c(n1)C(=O)N(COCC[Si](C)(C)C)CCCCOc1cc(ccn1)-c1nc(cn1COCC[Si](C)(C)C)C(=O)N2 [Example 93] | < 10000 |  |
| O=C1Nc2ccc(CCCN3CCCCC3)cc2OCCCCCNc2cc(ccn2)-c2nc1cs2 [Compound 27] | < 100 |  |
| O=C(O)c1ccc2c(c1)NC(=O)c1csc(n1)-c1ccnc(c1)NCCCCCO2 [Compound 15] | < 10000 |  |
| O=C1Nc2cn(C3CCOCC3)nc2C(=O)NCCCCCn2cc(cn2)-c2nc1co2 [Compound 42] | < 1000 |  |
| CN1CCCCCCOc2cc(ccn2)-c2nc(co2)C1=O [Compound 52] |  | > 10000 |
| CN(C)CCNC(=O)c1ccc2c(c1)OCCCCCNc1cc(ccn1)-c1nc(cs1)C(=O)N2 [Compound 25] | < 100 |  |
| Cn1cc2c(n1)C(=O)NCCCCOc1cnccc1-c1nc(co1)C(=O)N2 [Example 62] | < 1000 |  |
| COC(=O)c1ccc2c(c1)NC(=O)c1csc(n1)-c1ccnc(c1)NCCCCCO2 [Compound 14] |  | > 10000 |
| Cn1cc2c(n1)C(=O)NCCCCCOc1cc(ccn1)-c1nc(co1)C(=O)N2 [Compound 37] | < 100 |  |
| O=C1Nc2ccccc2OCC/C=C/COc2cc(ccn2)-c2nc1co2 [Example 1] | < 100 |  |
| O=C1NCC(c2ccccc2)OCCCCCNc2cc(ccn2)-c2nc1co2 (stereo not shown) [Example 76] | < 100 |  |
| Cn1cc2c(n1)C(=O)NCCCCCOc1cnccc1-c1nc(co1)C(=O)N2 [Example 63] | < 100 |  |
| Cn1cc2c(n1)C(=O)NCCC/C=C/CCCN(C(=O)OC(C)(C)C)c1cc(ccn1)-c1nc(co1)C(=O)N2 [Compound 28] | < 1000 |  |
| Cn1cc2c(n1)C(=O)NCCCCOc1cc(ccn1)-c1nc(cn1COCC[Si](C)(C)C)C(=O)N2 [Example 94] |  | > 10000 |
| O=C(NCCN1CCCCC1)c1ccc2c(c1)NC(=O)c1csc(n1)-c1ccnc(c1)NCCCCCO2 [Compound 18] | < 100 |  |

| Structure (SMILES) | IC50 (class symbols) [nM] | IC50 (given as numeric bound) [nM] |
| --- | --- | --- |
| O=C1NCCCCCCOc2cc(ccn2)-c2nc1co2 [Compound 58] | < 1000 |  |
| C[Si](C)(C)CCOCn1cc2nc1-c1ccnc(c1)CCCCCNC(=O)c1nn(C3CCOCC3)cc1NC2=O [Example 98] | < 10000 |  |
| CCN1CCCCCCCCNC(=O)c2csc(n2)-c2ccnc1c2 [Example 67] | < 1000 |  |
| O=C1Nc2cn(C3CCOCC3)nc2C(=O)NCCCCOc2cc(ccn2)-c2nc1co2 [Compound 36] | < 100 |  |
| O=C1Nc2cc(CCCN3CCCCC3)ccc2OCCCCCNc2cc(ccn2)-c2nc1cs2 [Compound 26] | < 100 |  |
| O=C1Nc2ccccc2OCCCCNc2cc(ccn2)-c2nc1co2 [Example 70] |  | > 10000 |
| O=C1NCCCCCCCCNc2cc(ccn2)-c2nc1cs2 [Example 64] | < 1000 |  |
| Cn1cc(N2CCCCCOc3cnccc3-c3nc(co3)C2=O)cn1 [Compound 61] | < 1000 |  |
| CCn1cc(N2CCCCCCOc3cc(ccn3)-c3nc(co3)C2=O)cn1 [Compound 50] |  | > 10000 |
| CC1CCCCNc2cc(ccn2)-c2nc(co2)C(=O)Nc2ccccc2O1 (stereo not shown) [Example 69] | < 100 |  |
| O=C1Nc2cc(C(=O)N3CCOCC3)ccc2OCCCCCNc2cc(ccn2)-c2nc1cs2 [Compound 22] | < 100 |  |
| O=C1Nc2cc(Br)ccc2OCCCCCNc2cc(ccn2)-c2nc1cs2 [Example 73] | < 100 |  |
| O=C1c2coc(n2)-c2ccnc(c2)OCCCCCCN1Cc1ccccc1 [Compound 51] | < 10000 |  |
| Cn1cc2c(n1)C(=O)NCCCCCc1cc(ccn1)-c1nc(co1)C(=O)N2 [Compound 39] | < 100 |  |
| CN(C)C1CCN(C(=O)c2ccc3c(c2)NC(=O)c2csc(n2)-c2ccnc(c2)NCCCCCO3)C1 (stereo not shown) [Compound 21] | < 100 |  |
| O=C(NCCN1CCOCC1)c1ccc2c(c1)NC(=O)c1csc(n1)-c1ccnc(c1)NCCCCCO2 [Compound 19] | < 100 |  |

Now from value to compound:

| IC50 (class symbols) [nM] | IC50 (given as numeric bound) [nM] | Structure (SMILES) |
| --- | --- | --- |
| < 10000 |  | O=C1NCc2ccc(cc2)OCCOc2cc(ccn2)-c2nc1co2 [Example 78] |
| < 1000 |  | CC(C)(C)OC(=O)N1CCNC(=O)c2nn(C3CCOCC3)cc2NC(=O)c2csc(n2)-c2ccnc(c2)OCC1 [Example 167] |
| < 10000 |  | O=C(O)CCC1NC(=O)c2nn(C3CCOCC3)cc2NC(=O)c2csc(n2)-c2ccnc(c2)CCCNC1=O (stereo not shown) [Example 194] |
| < 100 |  | CN1CCOCCNC(=O)c2nn(CCN3CCCCC3)cc2NC(=O)c2csc(n2)-c2ccnc1c2 [Example 221] |
| < 100 |  | NC(=O)CCN1CCCc2cc(ccn2)-c2nc(cs2)C(=O)Nc2cn(C3CCOCC3)nc2C(=O)NCC1 [Example 181] |
| < 1000 |  | O=C(CCC1NC(=O)c2nn(C3CCOCC3)cc2NC(=O)c2csc(n2)-c2ccnc(c2)CCCNC1=O)NCc1ccccc1 (stereo not shown) [Example 193] |
| < 100 |  | CC(C)(C)OC(=O)NCCC(=O)N1CCCc2cc(ccn2)-c2nc(cs2)C(=O)Nc2cn(C3CCOCC3)nc2C(=O)NCC1 [Example 171] |
| < 10000 |  | O=C1NCC2CCCC(C2)OCCCNc2cc(ccn2)-c2nc1cs2 (stereo not shown) [Example 80] |
| < 1000 |  | O=C1Nc2cn(C3CCOCC3)nc2C(=O)NCCOCCOc2cc(ccn2)-c2cc1ccn2 [Example 212] |
| < 10000 |  | CN1CCCCCCOc2cc(ccn2)-c2nc(cs2)C1=O [Example 103] |
| < 100 |  | CN1CCOCCNC(=O)c2nn(CCN3CCOCC3)cc2NC(=O)c2csc(n2)-c2ccnc1c2 [Example 220] |
| < 1000 |  | CC1NC(=O)c2nn(C3CCOCC3)cc2NC(=O)c2csc(n2)-c2ccnc(c2)CCCNC1=O (stereo not shown) [Example 197] |
| < 10000 |  | CN1CCC(CCn2ncc3c2C(=O)NCCOCCOc2cc(ccn2)-c2nc(cs2)C(=O)N3)CC1 [Example 156] |
| < 1000 |  | NC(=O)CN1CCCc2cc(ccn2)-c2nc(cs2)C(=O)Nc2cn(C3CCOCC3)nc2C(=O)NCC1 [Example 175] |
| < 1000 |  | NC(=O)CCC1NC(=O)c2nn(C3CCOCC3)cc2NC(=O)c2csc(n2)-c2ccnc(c2)CCCNC1=O (stereo not shown) [Example 195] |
| < 100 |  | CNC(=O)N1CCCc2cc(ccn2)-c2nc(cs2)C(=O)Nc2cn(C3CCOCC3)nc2C(=O)NCC1 [Example 186] |
| < 10000 |  | O=C1c2coc(n2)-c2ccnc(c2)OCCCCOCC2CCCN12 (stereo not shown) [Example 104] |
| < 10000 |  | O=C1Nc2cn(C3CCOCC3)nc2C(=O)NC(CCO)C(=O)NCCCc2cc(ccn2)-c2nc1cs2 (stereo not shown) [Example 198] |
|  | > 10000 | CCOC(=O)CN1CCCc2cc(ccn2)-c2nc(cs2)C(=O)Nc2cn(C3CCOCC3)nc2C(=O)NCC1 [Example 176] |
| < 100 |  | O=C1Nc2cn(C3CCOCC3)nc2C(=O)NCCN(C(=O)C2CC2)CCCc2cc(ccn2)-c2nc1cs2 [Example 184] |
| < 10000 |  | O=C1Nc2cn(C3CCOCC3)nc2C(=O)NCCCc2cc(ccn2)-c2nc1cs2 [Example 192] |
| < 100 |  | CCNC(=O)N1CCCc2cc(ccn2)-c2nc(cs2)C(=O)Nc2cn(C3CCOCC3)nc2C(=O)NCC1 [Example 191] |
| < 100 |  | CN1CCCCNC(=O)c2nn(C3CCOCC3)cc2NC(=O)c2csc(n2)-c2ccnc1c2 [Example 224] |
| < 100 |  | O=C(O)CCN1CCCc2cc(ccn2)-c2nc(cs2)C(=O)Nc2cn(C3CCOCC3)nc2C(=O)NCC1 [Example 179] |
| < 100 |  | O=C1Nc2cn(C3CCNCC3)nc2C(=O)NCCOCCOc2cc(ccn2)-c2nc1cs2 [Example 165] |
|  | > 10000 | Cn1cc(N2CCCCOc3cnccc3-c3nc(co3)C2=O)cn1 [Example 89] |
